Key:
Settings in all cases: in vivo
[1] = Ratio of drug uptake in tumor to skin in human KB cells expressing folate receptor xenografted athymic Swiss nude mouse with folate diet assessed as fluorescence accumulation by UV-visible spectrophotometer; type: ADME, cell-based
[2] = Ratio of drug uptake in tumor to skin in human KB cells expressing folate receptor xenografted athymic Swiss nude mouse with folate free diet assessed as fluorescence accumulation by UV-visible spectrophotometer; type: ADME, cell-based
[3] = Ratio of drug uptake in tumor to skin in folate receptor deficient HT29 cells xenografted athymic Swiss nude mouse with folate diet assessed as fluorescence accumulation by UV-visible spectrophotometer; type: ADME, cell-based, HT-29
[4] = Ratio of drug uptake in tumor to skin in folate receptor deficient HT29 cells xenografted athymic Swiss nude mouse with folate free diet assessed as fluorescence accumulation by UV-visible spectrophotometer; type: ADME, cell-based, HT-29

## Nc1nc(O)c2nc(CNc3ccc(C(=O)NC(CCC(=O)NCCOCCOCCNC(=O)c4ccc(-c5c6nc(c(-c7cccc(O)c7)c7ccc([nH]7)c(-c7cccc(O)c7)c7nc(c(-c8cccc(O)c8)c8ccc5[nH]8)C=C7)CC6)cc4)C(=O)O)cc3)cnc2n1 (stereo not drawn)
[1]
  Ratio: 1.9
[2]
  Ratio: 5
[3]
  Ratio: 2.1
[4]
  Ratio: 1

## O=C(O)c1ccc(-c2c3nc(c(-c4cccc(O)c4)c4ccc([nH]4)c(-c4cccc(O)c4)c4nc(c(-c5cccc(O)c5)c5ccc2[nH]5)C=C4)CC3)cc1
[1]
  Ratio: 2.8
[2]
  Ratio: 2.1
[3]
  Ratio: 1.1
[4]
  Ratio: 3.7

From ChEMBL document CHEMBL1157536, “Improvement of meta-tetra(hydroxyphenyl)chlorin-like photosensitizer selectivity with folate-based targeted delivery. synthesis and in vivo delivery studies” (J Med Chem, 2008)
